In patent publication US20260115216A1, “NUCLEIC ACID PRECURSOR” (priority 2022, published 2026):
Read-outs that look alike come from different tables or passages of the source.

Tests used:
[1] = test system: MCF7 (human breast cancer cells); assay: Effect of ATP prodrug on intracellular ATP concentration in MCF7 cells (Test Example 1); type: cell-based; details: MCF7, 100 μM ATP prodrug, after 3 days, ATP per cell
Procedure: MCF7 (human breast cancer cells) (RIKEN BRC) were seeded at 5000 cells per well in DMEM low glucose, 10% FBS, and 1% penicillin/streptomycin, and, after 3 hours, solutions of the ATP prodrug prepared in Example 1 in DMSO at varying concentrations were added to those wells. Three days later, the amounts of DNA were measured using picogreen, and converted to cell counts from a calibration curve separately created. The amount of ATP was quantified using the ATP measurement kit (Dojin Chemical), and the amount of ATP per cell was calculated.

[2] = test system: MCF7 cells; assay: Effect of ATP analogs on intracellular ATP concentration in MCF7 cells (Test Example 2); type: cell-based, human; details: MCF7, 100 μM, one day and two days, normalized to DNA, compared with adenosine, AMP
Procedure: Adenosine, AMP, ATP, and the ATP prodrug were added to the culture medium of MCF7 cells (5000 cells/well) at a concentration of 100 μM, and, one day and two days later, ATP was measured, followed by normalizing the results to the DNA amounts.

[3] = test system: Human fibroblasts (NHDF); assay: Effect on intracellular ATP concentration using normal cells (Test Example 3); type: cell-based; details: 200 μM ATP prodrug, one day, ATP per cell
Procedure: Human fibroblasts (NHDF) (Takara Bio) were seeded at 5000 cells per well in DMEM low glucose, 10% FBS, and 1% penicillin/streptomycin, and, after 3 hours, a solution of the ATP prodrug prepared in Example 1 in DMSO at varying concentrations was added to the wells. One day later, the amount of DNA was measured using picogreen, and converted to cell count from a calibration curve separately created. The ATP level was quantified using the ATP measurement kit (Dojin Chemical), and the ATP level per cell was calculated.

[4] = test system: Human Dermal Fibroblasts (HDF) derived from human; assay: Intracellular ATP level in young and aged human dermal fibroblasts (Test Example 4 A); type: cell-based; details: 50 μM, 24 hours
Procedure: (§1) Human Dermal Fibroblasts (HDF) derived from human (Toyobo) were seeded at 5000 cells/well in DMEM low glucose, 10% FBS, and 1% penicillin/streptomycin, and three hours later, the ATP prodrug dissolved in DMSO was added at either 0 or 50 μM. (A) The sample was incubated for 24 hours. The amount of DNA was measured using picogreen, and converted to cell count from a calibration curve separately created. The ATP level was quantified using the ATP measurement kit (Dojin Chemical), and the ATP level per cell was calculated. (B) 75 μM of the ATP prodrug was added to the HDF derived from human, and the medium was replaced with serum-free medium comprising 200 μM of hydrogen peroxide after 24 hours, followed by incubating the mixture for 6 hours. After 6 hours, the cells were washed, and the cell numbers were compared using the WST-8 kit.

[5] = test system: HDF derived from human; assay: Oxidative stress load (hydrogen peroxide) on aged cells, cell number by WST-8 (Test Example 4 B); type: cell-based; details: HDF from person, 75 μM ATP prodrug 24 hours, then 200 μM hydrogen peroxide 6 hours
Procedure: as §1

[6] = test system: NHDF (normal human dermal fibroblasts); assay: Cytotoxicity by LDH release (Test Example 5); type: cell-based; details: 24 hours
Procedure: NHDF (normal human dermal fibroblasts) were seeded at 5000 cells per well in DMEM/F12 with 10% FBS and 1% penicillin/streptomycin, and after 3 hours, a solution of the ATP prodrug prepared in Example 1 in DMSO at varying concentrations was added to the wells. After 24 hours, the release of the cytotoxicity marker, lactate dehydrogenase (LDH), was quantified using the LDH assay kit (Dojin Chemical), and the cytotoxicity was calculated.

[7] = test system: Human liver cancer cells (HepG2); assay: Intracellular ATP level in liver cancer cells (Test Example 6); type: cell-based; details: HepG2 (cultured cells), varying concentrations, 24 hours
Procedure: Human liver cancer cells (HepG2) were seeded at 5000 cells per well in DMEM with 10% FBS and 1% penicillin/streptomycin, and after 3 hours, a solution of the ATP prodrug prepared in Example 1 in DMSO at varying concentrations was added to the wells. After 24 hours, the amount of DNA was measured using picogreen, and converted to cell count based on a calibration curve separately created. The ATP level was quantified using the ATP measurement kit (Dojin Chemical), resulting in the ATP level per cell.

[8] = test system: normal pig liver cells; assay: Intracellular ATP level in primary liver cells (Test Example 6); type: cell-based; details: varying concentrations, 24 hours
Procedure: In addition to this study, normal pig liver cells were seeded at 5000 cells per well in the liver cell differentiation environment (Hepatp-STIM, 1 μg/100 mL EGF, 1% penicillin/streptomycin), and after 3 hours, a solution of the ATP prodrug in DMSO at varying concentrations was added to the wells. The DNA amount was measured using picogreen 24 hours later. The ATP level was quantified using the ATP measurement kit (Dojin Chemical), and the ATP level was provided.

[9] = test system: nematodes; assay: Lifespan extension in model organism (nematode), survival analysis (Test Examples 8 and 10); type: in vivo; details: for average lifespan extended compared to the control: 1% DMSO
Procedure: The ATP prodrug prepared in Example 1, dissolved in DMSO, was added to the liquid Nematode Growth Medium (NGM) that had been sterilized and maintained at 60° C. at a final concentration of 100 μM, so as to prepare an ATP prodrug-containing NGM plate. At this time, the final concentration of DMSO in the NGM was adjusted to 1%. […] Onto the surface of the NGM plate used immediately before survival analysis, the bacterium Escherichia coli strain OP50 stirred in M9 buffer was applied as food for the nematodes.
Thirty-five nematodes were transferred to the NGM plate, after performing age synchronization. The nematodes were transferred to a new NGM plate every day from the first day of adulthood (the third day) to the seventh day, and every two days from the eighth day until the nematodes died. At the same time, the numbers of living nematodes and dead nematodes were recorded. Survival status of the nematodes was determined by whether they reacted when touched. Average lifespan was calculated from the results obtained, and the average lifespans were compared to determine the lifespan extension rate of the nematodes. This experiment was conducted four times to confirm the reproducibility (In cases of both with and without the addition of proATP, n=114).
ATP prodrug-neo dissolved in DMSO, was added to the liquid Nematode Growth Medium (NGM) that had been sterilized and maintained at 60° C. at a final concentration of 200 µM, so as to prepare an ATP prodrug-neo-containing NGM plate. At this time, the final concentration of DMSO in the NGM was adjusted to 1%. […]
Thirty-five nematodes were transferred to the NGM plate, after performing age synchronization. […] At the same time, the numbers of living nematodes and dead nematodes were recorded. Survival status of the nematode was determined by whether they reacted when touched. Average lifespan was calculated from the results obtained, and the average lifespans were compared to determine the lifespan extension rate of the nematodes. […]

[10] = test system: nematodes; assay: ATP level in model organism (nematode); type: in vivo; details: nematodes on NGM plate with 100 μM ATP prodrug, seventh day of cultivation
Procedure: The culture of the nematodes and the addition of the ATP prodrug to the nematodes were conducted under the same conditions as those in the survival analysis. On the seventh day of cultivation, five nematodes were collected for each condition, totaling twenty-five nematodes, and were transferred to a 24-well plate containing PBS, followed by conducting ultrasonic disruption while kept on ice for one minute. Then, the crushed liquid was collected into a microtube, and after centrifugation (15,000 rpm, 30 minutes, 4° C.), the supernatant was collected. Amount of the ATP in the supernatant was quantified using the ATP measurement kit (Dojin Chemical), and the amount of the ATP per nematode was calculated.

[11] = test system: AMP-activated protein kinase (AMPK); assay: Intracellular ATP levels using AMPK inhibitor (Test Example 7); details: normal human dermal fibroblasts, ATP prodrug 100 μM, 24 hours
[12] = test system: HDF75 (human dermal fibroblasts derived from a person); assay: Effect of ATP prodrug-neo on intracellular ATP concentration (Test Example 9); type: cell-based; details: HDF75, varying concentrations, 24 hours, ATP per cell
Procedure: HDF75 (human dermal fibroblasts derived from a person) (Cell Applications, Inc.) were seeded at 5000 cells per well in the human dermal fibroblast growth medium, and after 3 hours, a solution of the ATP prodrug-neo prepared in Example 2 in DMSO at varying concentrations was added to the well. After 24 hours, the amount of DNA was measured using the picogreen and converted to cell count from a calibration curve separately created. The amount of ATP was quantified using the ATP measurement kit (Dojin Chemical), and the amount of ATP per cell was calculated.

[13] = cited from earlier work
[14] = test system: nematodes; details: nematode, literature values of other drugs; cited from earlier work

## CCC(CC)COC(=O)[C@H](C)N[P@](=O)(OC[C@H]1O[C@@H](n2cnc3c(N)ncnc32)[C@H](O)[C@@H]1O)Oc1ccccc1 [ATP prodrug, (S)-2-Ethylbutyl 2-(((S)-(((2R,3S,4R,5R)-5-(6-amino-9H-purine-9-yl)-3,4-dihydroxy-tetrahydrofuran-2-yl)methoxy) (phenoxy)phosphoryl)amino)propanoate]
[1]
  intracellular ATP amount compared to the control level: approximately 2.5 times
[2]
  intracellular ATP level: increased
[3]
  intracellular ATP level compared to the control (0 μM): 1.7 times
[4]
  intracellular ATP levels: increased
[5]
  cell number under oxidative stress: suppresses the decrease in cell number
[6]; 256 μM
  amount of LDH release: remains low
[6]; LDH assay
  cytotoxicity to cells: low cytotoxicity
[7]
  intracellular ATP levels: increased
[8]
  intracellular ATP levels: increased
[9]; nematode, the present invention
  Lifespan Extension Rate: 133%
[9]; nematodes on NGM plate with 100 μM ATP prodrug
  average lifespan extended compared to the control: approximately 33%
[10]
  amount of ATP per nematode higher than control: approximately 23%
[11]
  AMPK activation (suggested from inhibitor experiment): activates the AMPK

## C[C@H](NP(=O)(N[C@@H](C)C(=O)OCC(C)(C)C)OC[C@H]1O[C@@H](n2cnc3c(N)ncnc32)C(O)C1O)C(=O)OCC(C)(C)C (stereo partly shown) [ATP prodrug-neo]
[9]; nematodes on NGM plate with 200 µM ATP prodrug-neo
  average lifespan extended compared to the control: approximately 26%
[12]
  intracellular ATP levels: increased

## Nc1ncnc2c1ncn2[C@@H]1O[C@H](COP(=O)(O)OP(=O)(O)OP(=O)(O)O)[C@@H](O)[C@H]1O [ATP, adenosine triphosphate]
[13]
  half-life in blood: about 10 seconds

## CN(C)C(=N)N=C(N)N [Metformin]
[14]
  Lifespan Extension Rate: 127%

## NC(=O)c1cccnc1 [Nicotinamide]
[14]
  Lifespan Extension Rate: 116%

## Oc1ccc(C=Cc2cc(O)cc(O)c2)cc1 [Resveratrol]
[14]
  Lifespan Extension Rate: 110%
